Test results as given in publication PMC9325707, “Vav2 is a novel APP-interacting protein that regulates APP protein level” (Scientific Reports, 2022).
Positions count from the first letter of the chain named. Numbers in names are those of the source. Non-standard residues stand in square brackets, D forms with d. Residues, ends and D or L forms follow the SMILES beside them. pY = N[C@@H](Cc1ccc(OP(=O)(O)O)cc1)C(=O)O

Columns and labels:
[1] = molecular target: T1, Vav2-SH2 domain (Homo sapiens, UniProt P52735); test: ITC binding of APP peptides to Vav2-SH2; settings: 298 K, 10 mM Tris/HCl, 100 mM NaCl
T1 construct: the DNA fragment encoding the SH2 domain of Vav2 (residues 659–771) was cloned into a pET28a (+) (Novagen) plasmid; 6xHis (N, cleaved yes); made in house; host or cells: Escherichia coli BL21 (DE3)
T1 sequence (P52735 659-771): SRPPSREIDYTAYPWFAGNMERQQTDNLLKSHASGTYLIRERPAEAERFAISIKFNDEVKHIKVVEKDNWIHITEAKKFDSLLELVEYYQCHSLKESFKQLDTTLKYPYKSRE
Excerpt: For NMR and ITC experiments, the DNA fragment encoding the SH2 domain of Vav2 (residues 659–771) was cloned into a pET28a (+) (Novagen) plasmid as described previously, generating a fusion protein with an N-terminus 6 × His tag. For GST pull-down experiments, the Vav2-SH2 was subcloned into pGEX4T-1 vector. The APP expression plasmid pAPPsw and the Vav2 expression plasmid pCMV5-myc-Vav2 were constructed as previously described[55],[66]. Mutants were generated by PCR mediated site-directed mutagenesis. All the constructs were verified by DNA sequencing.
The recombinant plasmids harboring His-tagged or GST-tagged Vav2-SH2 were transformed into Escherichia coli BL21 (DE3) (Novagen) strain. Cells were grown at 37 °C up to an A600 nm of 0.8, and then were induced with 0.5 mM IPTG at 25 °C for 8 h. […] Protein concentrations were estimated with absorbance spectroscopy using the molar absorption coefficient. […]
ITC experiments were performed at 298 K on a PEAQ-ITC titration calorimeter (MicroCal, Northampton, MA). […] ITC data were analyzed with a single-site binding model using Microcal PEAQ-ITC software.

[2] = molecular target: APP pY682 peptide (Homo sapiens) (UniProt P05067); settings: cited from earlier work
Sequence of APP pY682 peptide (Homo sapiens) (P05067 whole entry, looked up, the tested form may be a part): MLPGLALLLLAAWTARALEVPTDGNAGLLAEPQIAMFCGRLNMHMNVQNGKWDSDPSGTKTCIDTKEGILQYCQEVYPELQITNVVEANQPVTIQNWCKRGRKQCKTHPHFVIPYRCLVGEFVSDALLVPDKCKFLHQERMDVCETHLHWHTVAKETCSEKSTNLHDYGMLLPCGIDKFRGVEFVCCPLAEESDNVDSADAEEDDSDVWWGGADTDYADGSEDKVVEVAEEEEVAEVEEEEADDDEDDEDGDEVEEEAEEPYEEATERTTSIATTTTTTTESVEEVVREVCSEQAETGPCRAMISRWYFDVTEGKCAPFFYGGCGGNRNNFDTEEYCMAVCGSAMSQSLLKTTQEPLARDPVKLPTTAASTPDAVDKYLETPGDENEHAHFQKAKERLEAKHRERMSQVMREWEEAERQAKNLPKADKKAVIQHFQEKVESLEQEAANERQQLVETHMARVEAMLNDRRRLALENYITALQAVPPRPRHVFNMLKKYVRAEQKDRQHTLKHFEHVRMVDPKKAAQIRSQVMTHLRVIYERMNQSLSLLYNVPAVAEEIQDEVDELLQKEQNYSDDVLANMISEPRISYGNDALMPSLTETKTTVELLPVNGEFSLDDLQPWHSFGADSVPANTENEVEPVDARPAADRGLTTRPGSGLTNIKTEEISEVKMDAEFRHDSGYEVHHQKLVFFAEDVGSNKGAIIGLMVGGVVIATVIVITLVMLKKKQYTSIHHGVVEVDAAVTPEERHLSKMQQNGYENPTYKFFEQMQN

[3] = molecular target: T1, Vav2-SH2 domain; test: NMR titration (2D 1H-15N HSQC) of 15N-labeled Vav2-SH2 with APP peptides; format: binding; settings: 0.1 mM 15N-Vav2-SH2, 20 mM Tris/HCl, 100 mM NaCl, 3 mM DTT, 90% H2O/10% D2O, pH 7.0, 293 K, 600 MHz; protein:peptide up to 1:3 (APP-pY682) or 1:4 (APP-Y682)
Description: The recombinant plasmids harboring His-tagged or GST-tagged Vav2-SH2 were transformed into Escherichia coli BL21 (DE3) (Novagen) strain. Cells were grown at 37 °C up to an A600 nm of 0.8, and then were induced with 0.5 mM IPTG at 25 °C for 8 h. For the production of uniformly ^15N-labeled samples, cells were grown in minimal medium using ^15NH4CL (0.5 g/L) as the sole nitrogen source. ^15N-NH4Cl was purchased from Cambridge Isotope Laboratories, Inc. The His-tagged proteins were purified by a chelated-nickel column followed by Thrombin protease treatment to remove the tag as previous described. The GST and GST fusion proteins were purified using immobilized glutathione. All proteins were further purified on a Superdex75 gel-filtration column (GE Healthcare, Piscataway, NJ, USA). The purity of proteins was confirmed by SDS–PAGE. Protein concentrations were estimated with absorbance spectroscopy using the molar absorption coefficient. […]
The NMR sample of the apo Vav2-SH2 contained 0.1 mM of protein was dissolved in NMR buffer: 20 mM Tris/HCl with 100 mM NaCl, 3 mM DTT in 90% H2O, 10% D2O (pH 7.0). […] A series of ^1H–^15N HSQC spectra were recorded as the titrant gradually titrated into the protein solutions using the Bruker hsqcfpf3gpphwg pulse program. […] NMR data were processed with NMRPipe[67] and analyzed using Sparky3 (Goddard and Kneller, University of California, San Francisco). […]

[4] = test system: full-length APPsw; test: GST pull-down of full-length APPsw from 20E2 cell lysate; format: binding; settings: 20E2 cell lysate 0.2 mg, 1 mg GST fusion on glutathione-agarose, 2 h; western blot (C20)
Description: The recombinant plasmids harboring His-tagged or GST-tagged Vav2-SH2 were transformed into Escherichia coli BL21 (DE3) (Novagen) strain. Cells were grown at 37 °C up to an A600 nm of 0.8, and then were induced with 0.5 mM IPTG at 25 °C for 8 h. For the production of uniformly ^15N-labeled samples, cells were grown in minimal medium using ^15NH4CL (0.5 g/L) as the sole nitrogen source. ^15N-NH4Cl was purchased from Cambridge Isotope Laboratories, Inc. The His-tagged proteins were purified by a chelated-nickel column followed by Thrombin protease treatment to remove the tag as previous described. The GST and GST fusion proteins were purified using immobilized glutathione. All proteins were further purified on a Superdex75 gel-filtration column (GE Healthcare, Piscataway, NJ, USA). The purity of proteins was confirmed by SDS–PAGE. Protein concentrations were estimated with absorbance spectroscopy using the molar absorption coefficient.
One hundred microliter glutathione-agarose beads were incubated with 1 mg purified GST or indicated GST-SH2 fusions and the mutant GST-SH2^R680A for 2 h at 4 °C in GST binding buffer (20 mM Tris/HCl, pH 7.4, 150 mM NaCl and 1 mM EDTA, 0.5% TritonX-100). […] After washing 4 times with GST binding buffer, beads were boiled in SDS sample buffer, run on 12% SDS–PAGE gel and analyzed by Coomassie or immunoblotting.

C[C@@H](O)[C@H](NC(=O)[C@@H]1CCCN1C(=O)[C@H](CC(N)=O)NC(=O)[C@H](CCC(=O)O)NC(=O)[C@H](Cc1ccc(OP(=O)(O)O)cc1)NC(=O)CNC(=O)[C@H](CC(N)=O)NC(=O)[C@@H](N)CCC(N)=O)C(=O)O [APP-pY682] (H-QNG[pY]ENPT-OH)
Kd ([1]; pH 7.4, 0.75 mM peptide titrated into 30 μM Vav2-SH2, single-site binding model): 860 nM

Grb2 SH2 (from UniProt P62993)
Kd [2]: 290 nM

QNGYENPT [APP-Y682]
binding in ITC (result in words) ([1]; pH 7.4, 0.75 mM peptide titrated into 30 μM Vav2-SH2): no binding | chemical shift perturbations (CSPs) in 1H-15N HSQC of Vav2-SH2 [3]: did not induce any chemical shift perturbations

B1: GST-Vav2-SH2: wild-type GST-Vav2-SH2 protein (protein)
chain: T1 sequence (P52735 659-771)
modifications: left off: GST, end not stated, kept
notes: wild-type GST-Vav2-SH2 protein
binding to full-length APPsw in GST pull-down (result in words) [4]: bound selectively to full-length APPsw

B2: R680A mutant: R680A mutant of GST-Vav2-SH2 protein (negative control) (protein)
chain: T1 sequence (P52735 659-771) with R22A
modifications: left off: GST, end not stated, kept
binding to full-length APPsw in GST pull-down (result in words) [4]: not GST alone or the R680A mutant bound selectively to full-length APPsw
